Measurements: ChEMBL document CHEMBL1201862, “PubChem BioAssay data set” (2004)
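1) Cells in 96-well plates. 2) Compound, 48 h, 5 concentrations. 3) Linear interpolation between surrounding doses. 4) Unreached endpoint = highest concentration. Abbreviation: GI50, concentration required for 50% inhibition of growth.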 Calls of active or inactive are those of the source. Rule as the data show it: active = GI50 up to about 1.1 µM and inactive = higher.

Experiments:
Experiment in all cases: NCI tumour cell line growth inhibition, 48 h
786-0 = tested on: 786-0
A498 = tested on: A498
A549 = tested on: A549
ACHN = tested on: ACHN
CAKI-1 = tested on: CAKI-1
CCRF-CEM = tested on: CCRF-CEM
COLO 205 = tested on: COLO 205
DLD-1 = tested on: DLD-1
DMS-114 = tested on: DMS-114
DMS-273 = tested on: DMS-273
EKVX = tested on: EKVX
HCC 2998 = tested on: HCC 2998
HCT-116 = tested on: HCT-116
HCT-15 = tested on: HCT-15
HOP-62 = tested on: HOP-62
HOP-92 = tested on: HOP-92
HT-29 = tested on: HT-29
IGROV-1 = tested on: IGROV-1
K562 = tested on: K562
KM-20L2 = tested on: KM-20L2
KM12 = tested on: KM12
LOX IMVI = tested on: LOX IMVI
LXFL 529 = tested on: LXFL 529
M14 = tested on: M14
M19-MEL = tested on: M19-MEL
MOLT-4 = tested on: MOLT-4
Malme-3M = tested on: Malme-3M
NCI-H226 = tested on: NCI-H226
NCI-H23 = tested on: NCI-H23
NCI-H460 = tested on: NCI-H460
NCI-H522 = tested on: NCI-H522
OVCAR-3 = tested on: OVCAR-3
OVCAR-4 = tested on: OVCAR-4
OVCAR-5 = tested on: OVCAR-5
OVCAR-8 = tested on: OVCAR-8
RPMI-8226 = tested on: RPMI-8226
RXF 393 = tested on: RXF 393
RXF 631 = tested on: RXF 631
SF-268 = tested on: SF-268
SF-295 = tested on: SF-295
SF-539 = tested on: SF-539
SK-MEL-28 = tested on: SK-MEL-28
SK-MEL-2 = tested on: SK-MEL-2
SK-MEL-5 = tested on: SK-MEL-5
SN12C = tested on: SN12C
SNB-19 = tested on: SNB-19
SNB-75 = tested on: SNB-75
SNB-78 = tested on: SNB-78
SW-620 = tested on: SW-620
TK-10 = tested on: TK-10
U-251 = tested on: U-251
UACC-257 = tested on: UACC-257
UACC-62 = tested on: UACC-62
UO-31 = tested on: UO-31
XF498 = tested on: XF498
HL-60 = tested on: HL-60
SR = tested on: SR

O=C(/N=C(/Nc1ccccc1)SCS/C(=N\C(=O)c1ccco1)Nc1ccccc1)c1ccco1
GI50 (786-0): 35.2 µM (inactive) | GI50 (A498): 27.1 µM (inactive) | GI50 (A549): 41.5 µM (inactive) | GI50 (ACHN): 38.8 µM (inactive) | GI50 (CAKI-1): 29.4 µM (inactive) | GI50 (CCRF-CEM): > 100 µM (inactive) | GI50 (COLO 205): > 100 µM (inactive) | GI50 (DLD-1): 44 µM (inactive) | GI50 (DMS-114): 52 µM (inactive) | GI50 (DMS-273): 37.8 µM (inactive) | GI50 (EKVX): 33.9 µM (inactive) | GI50 (HCC 2998): 53.7 µM (inactive) | GI50 (HCT-116): 37.2 µM (inactive) | GI50 (HCT-15): > 100 µM | GI50 (HOP-62): 19.5 µM (inactive) | GI50 (HOP-92): 18.7 µM (inactive) | GI50 (HT-29): > 100 µM (inactive) | GI50 (IGROV-1): 63.4 µM (inactive) | GI50 (K562): > 100 µM (inactive) | GI50 (KM-20L2): > 100 µM (inactive) | GI50 (KM12): > 100 µM (inactive) | GI50 (LOX IMVI): > 100 µM (inactive) | GI50 (LXFL 529): > 100 µM (inactive) | GI50 (M14): > 100 µM (inactive) | GI50 (M19-MEL): > 100 µM (inactive) | GI50 (MOLT-4): > 100 µM (inactive) | GI50 (Malme-3M): > 100 µM (inactive) | GI50 (NCI-H226): 28 µM (inactive) | GI50 (NCI-H23): 24.4 µM (inactive) | GI50 (NCI-H460): > 100 µM (inactive) | GI50 (NCI-H522): 27.4 µM (inactive) | GI50 (OVCAR-3): 40.8 µM (inactive) | GI50 (OVCAR-4): 82.2 µM (inactive) | GI50 (OVCAR-5): > 100 µM (inactive) | GI50 (OVCAR-8): 50.6 µM (inactive) | GI50 (RPMI-8226): > 100 µM (inactive) | GI50 (RXF 393): 15.1 µM (inactive) | GI50 (RXF 631): 94.4 µM (inactive) | GI50 (SF-268): 22.5 µM (inactive) | GI50 (SF-295): 26.5 µM (inactive) | GI50 (SF-539): 23.2 µM (inactive) | GI50 (SK-MEL-28): > 100 µM (inactive) | GI50 (SK-MEL-2): 80.2 µM (inactive) | GI50 (SK-MEL-5): 61.5 µM (inactive) | GI50 (SN12C): 84.1 µM (inactive) | GI50 (SNB-19): 24 µM (inactive) | GI50 (SNB-75): 16.9 µM (inactive) | GI50 (SNB-78): 37.1 µM (inactive) | GI50 (SW-620): > 100 µM (inactive) | GI50 (TK-10): 29.4 µM (inactive) | GI50 (U-251): 32 µM (inactive) | GI50 (UACC-257): > 100 µM (inactive) | GI50 (UACC-62): > 100 µM (inactive) | GI50 (UO-31): 44.8 µM (inactive) | GI50 (XF498): 25.4 µM (inactive)

CCOC(=O)C(C)(C)Oc1ccc2c(=O)cc(-c3ccc(Cl)cc3)oc2c1
GI50 (786-0): > 100 µM (inactive) | GI50 (A498): > 100 µM (inactive) | GI50 (A549): > 100 µM (inactive) | GI50 (ACHN): > 100 µM (inactive) | GI50 (CCRF-CEM): > 100 µM (inactive) | GI50 (COLO 205): > 100 µM (inactive) | GI50 (DLD-1): > 100 µM (inactive) | GI50 (DMS-114): > 100 µM (inactive) | GI50 (DMS-273): > 100 µM (inactive) | GI50 (EKVX): > 100 µM (inactive) | GI50 (HCC 2998): > 100 µM (inactive) | GI50 (HCT-116): > 100 µM (inactive) | GI50 (HCT-15): > 100 µM | GI50 (HL-60): > 100 µM (inactive) | GI50 (HOP-62): > 100 µM (inactive) | GI50 (HT-29): > 100 µM (inactive) | GI50 (IGROV-1): > 100 µM (inactive) | GI50 (K562): > 100 µM (inactive) | GI50 (KM-20L2): > 100 µM (inactive) | GI50 (LOX IMVI): > 100 µM (inactive) | GI50 (LXFL 529): > 100 µM (inactive) | GI50 (M14): > 100 µM (inactive) | GI50 (M19-MEL): > 100 µM (inactive) | GI50 (MOLT-4): > 100 µM (inactive) | GI50 (Malme-3M): > 100 µM (inactive) | GI50 (NCI-H226): > 100 µM (inactive) | GI50 (NCI-H23): > 100 µM (inactive) | GI50 (NCI-H460): > 100 µM (inactive) | GI50 (OVCAR-3): > 100 µM (inactive) | GI50 (OVCAR-4): > 100 µM (inactive) | GI50 (OVCAR-8): > 100 µM (inactive) | GI50 (RPMI-8226): > 100 µM (inactive) | GI50 (RXF 393): > 100 µM (inactive) | GI50 (RXF 631): > 100 µM (inactive) | GI50 (SF-268): > 100 µM (inactive) | GI50 (SF-295): > 100 µM (inactive) | GI50 (SF-539): > 100 µM (inactive) | GI50 (SK-MEL-28): > 100 µM (inactive) | GI50 (SK-MEL-2): > 100 µM (inactive) | GI50 (SK-MEL-5): > 100 µM (inactive) | GI50 (SN12C): > 100 µM (inactive) | GI50 (SNB-19): > 100 µM (inactive) | GI50 (SNB-75): 38.4 µM (inactive) | GI50 (SR): > 100 µM (inactive) | GI50 (SW-620): > 100 µM (inactive) | GI50 (TK-10): > 100 µM (inactive) | GI50 (U-251): > 100 µM (inactive) | GI50 (UACC-257): > 100 µM (inactive) | GI50 (UACC-62): > 100 µM (inactive) | GI50 (UO-31): > 100 µM (inactive) | GI50 (XF498): > 100 µM (inactive)
